Five molecules from PMC9049325 (ChemMedChem, 2020) can be followed below.

Molecules are shown by their SMILES. Where two headings read alike, the source gives them in different places.

For data set [1], the system named is CB-5083 resistant p97 mutants. In words: p97 ATPase activity assay, panel of CB-5083 resistant mutants. Conditions: among CB-5083 resistant mutants. In kind it is biochemical.
Data set [2] has as its system CB-R-HCT116 cells (p97 D649A/T688A). In words: Cell proliferation, CB-5083 resistant HCT116 versus parental HCT116. Format: cell-based. To be noted: for sensitivity of CB-R-HCT116 compared with parental HCT116: cell proliferation.
Data set [3] has as its target p97 D649A/T688A double mutant. In words: p97 ATPase activity assay, D649A/T688A double mutant. In kind it is biochemical. To be noted: protein concentration and reaction time each increased 4-fold.
In the next data set the test system is seven cancer lines. In words: Cancer cell proliferation assay. Conditions: for IC50: read-out: IC50 for inhibition of proliferation. Format: cell-based.
For another data set, the system named is CB-R-HCT116 cells. In words: Western blot of UPR / p97 inhibition biomarkers, CB-R-HCT116. Format: cell-based. Conditions: CB-R-HCT116, 10 μM, 6 hours. On the technique in general: In western blotting, separated proteins are transferred to a membrane and probed.
The next data set relates to HCT116 cells. To be noted: HCT116, 2.5 μM, 6 hours.
For data set [4], the target named is T1, WT p97 (Homo sapiens, UniProt P55072). In words: p97 ATPase activity assay, WT. In kind it is biochemical.
T1 sequence (P55072 whole entry): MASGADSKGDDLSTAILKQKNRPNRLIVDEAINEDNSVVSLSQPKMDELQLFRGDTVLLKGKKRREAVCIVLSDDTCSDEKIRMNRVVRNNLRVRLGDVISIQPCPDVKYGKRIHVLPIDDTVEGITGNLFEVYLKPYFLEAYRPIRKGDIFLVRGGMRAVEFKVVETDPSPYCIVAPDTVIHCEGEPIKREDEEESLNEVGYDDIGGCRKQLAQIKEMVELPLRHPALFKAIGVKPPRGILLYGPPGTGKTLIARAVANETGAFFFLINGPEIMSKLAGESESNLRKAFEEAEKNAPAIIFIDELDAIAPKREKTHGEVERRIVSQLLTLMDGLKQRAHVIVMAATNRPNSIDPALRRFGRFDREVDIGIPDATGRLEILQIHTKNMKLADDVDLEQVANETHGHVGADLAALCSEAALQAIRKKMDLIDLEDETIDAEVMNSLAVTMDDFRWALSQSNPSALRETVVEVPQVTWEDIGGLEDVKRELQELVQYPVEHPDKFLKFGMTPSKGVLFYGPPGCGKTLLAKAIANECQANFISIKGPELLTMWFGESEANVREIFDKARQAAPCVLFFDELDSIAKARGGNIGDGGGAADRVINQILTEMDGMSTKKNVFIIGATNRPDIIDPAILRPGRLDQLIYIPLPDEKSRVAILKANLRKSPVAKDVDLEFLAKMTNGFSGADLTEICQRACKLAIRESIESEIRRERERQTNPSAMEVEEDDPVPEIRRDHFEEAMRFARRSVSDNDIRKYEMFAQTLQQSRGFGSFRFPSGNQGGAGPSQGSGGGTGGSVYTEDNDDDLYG
In data set [5] the test system is A549 cells. Kind of data set: Intracellular compound concentration determination.
Data set [6] has as its target T1, WT p97. Kind of data set: Thermal shift assay. In kind it is binding. To be noted: TSA, WT compared with N660K and T688A.
In a further data set the target is p97 ATPase (Homo sapiens, UniProt P55072). Kind of data set: Steady-state kinetic analysis of p97 ATPase inhibition. In kind it is biochemical. To be noted: ten ATP concentrations, 2 or 3 inhibitor concentrations.
Sequence of p97 ATPase (P55072 whole entry): as above
The test system of data set [7] is A549 cells.
A further data set has as its target p97 T688A mutant (Homo sapiens, UniProt P55072, T688A). In words: p97 ATPase activity assay, T688A mutant. Format: biochemical.

Sequence of p97 T688A mutant (P55072 whole entry T688A): as the sequence (P55072 whole entry) above, with T688A counted along it

For the molecule `COc1cccc2c(NCc3ccccc3)nc(-n3c(N)nc4ccccc43)nc12` [ML240], the “mutants most resistant to inhibition” value in data set [1] was “N660K and T688A are the most resistant”.

Regarding `Cc1cc2c(C(N)=O)cccc2n1-c1nc2c(c(NCc3ccccc3)n1)COCC2` [CB-5083], the “mutants most resistant to inhibition” value in [1] was “N660K and T688A are the most resistant”. In data set [2] (CB-R-HCT116, 10.5 μM), the inhibition of proliferation result is recorded as “only slightly inhibited”. Also, the “sensitivity of CB-R-HCT116 compared with parental HCT116” value in data set [2] was “unaffected”. The “IC50 increase toward D649A/T688A vs WT p97” value in data set [3] is on record as “about 400 fold”. Further, in the data set on seven cancer lines, the IC50 fell in the range of 500 to 4000 nM. Further, the “changes in biomarkers (K48 ubiquitination, ATF4, CHOP, p62)” value in the data set on CB-R-HCT116 cells is “no effects on these biomarkers”; in the data set on HCT116 cells it was “accumulation of K48 ubiquitination, ATF4 and CHOP”.

For the molecule `CC(C)N1CCN(CCNC2CCN(c3cccc(-c4cc5cc(F)ccc5[nH]4)c3)CC2)CC1` [UPCDC-30245], the “fold less potent than NMS-873 in the ATPase activity assay” value at WT p97 [4] (WT p97) is given as 12 fold. For the same molecule, the IC50 on WT p97 [4] (read-out: IC50 toward WT p97 ATPase activity, biochemical assay) is 300 nM. In [2], the “sensitivity of CB-R-HCT116 compared with parental HCT116” value is “similarly sensitive”. Moreover, the “intracellular concentration relative to NMS-873” value in the data set with A549 cells [5] (5 μM) turned out to be 12 fold. In addition, the “IC50 increase toward D649A/T688A vs WT p97” value in [3] is recorded as 2 fold. In the data set with seven cancer lines (HT29 cells), the “potency at inhibiting cell proliferation compared with NMS-873” value is recorded as “more potent”. Further, on WT p97 [6], the “effect on Tm of WT, N660K and T688A p97” value is “did not stabilize WT or either mutant p97 protein”. In addition, the mechanism of inhibition entry at p97 ATPase is “noncompetitive inhibition”. For the same molecule, in the data set with A549 cells [7], the intracellular concentration reached entry was “millimolar” and the “time to steady-state intracellular concentration” value was 3 h. The “fold resistance of T688A (IC50 increase vs WT)” value at p97 T688A mutant is on record as 3 fold.

For `Cc1cc(OCc2nnc(SC3CCCC3)n2-c2cccnc2)ccc1-c1ccc(S(C)(=O)=O)cc1` [NMS-873], in [2], the “sensitivity of CB-R-HCT116 compared with parental HCT116” value is on record as “slightly more sensitive”. Besides, the intracellular concentration reached result in the data set with A549 cells [5] is “millimolar”. Moreover, the IC50 with seven cancer lines lay in the range of 500 to 4000 nM. Further, at p97 ATPase, the mechanism of inhibition result is “noncompetitive inhibitor”.

For the molecule `c1ccc(CNc2nc(N3CCOc4ccccc43)nc3c2CCCC3)cc1` [ML241], the “mutants most resistant to inhibition” value in [1] was “N660K and T688A are the most resistant”.
